Like-named read-outs stand apart in the source and are kept apart here.
System: rgRSV224, an engineered RSV strain that encodes for eGFP
Type: cell-based
Method: To evaluate their combined antiviral effect against RSV, in vitro combination studies were performed with JNJ-53718678 (“compound A”) and various compounds with different mechanisms-of-action (“compound B”). In short, 9 concentrations of Compound A were combined with 6 or 7 concentrations of a certain compound B. HeLa cells were infected with rgRSV224, an engineered RSV strain that encodes for eGFP (Hallak L K, Spillmann D, Collins P L, Peeples M E. Glycosaminoglycan sulfation requirements for respiratory syncytial virus infection; Journal of Virology (2000), 74(22), 10508-13), in the presence of various concentrations of compound A and compound B individually or in combination.
Compound stock solutions were 5 mM in 100% DMSO, with following exceptions: ribavirin, 20 mM; A 60444, 10 mM; CR9501, 141 μM in PBS; palivizumab, 156 μM in PBS; MDT 637, 100 μM in methanol. First, the compounds were serially diluted in 3-fold dilution series in DMSO; CR9501 and palivizumab were serially diluted in cell culture medium, and MDT 637 in methanol. The concentration series were diluted 100-fold in cell culture medium to achieve a combination matrix. 10 μL of these compound solutions were transferred to black 384-well clear-bottom tissue-culture treated plates. Next, 10 μL of a […] HeLa cell suspension was added to achieve 3000 cells per well. Finally, 10 μL of diluted virus stock was added to achieve an MOI of 1. The final DMSO concentration of all wells was 0.5% DMSO, except for the MDT 637 experiment where it was 0.25% DMSO+0.25% methanol. Each combination of compound concentrations was tested in 4 replicates on 3 separate plates, resulting in a total of 12 replicates. The plates were incubated for 3 days at 37° C. in a humidified atmosphere at 5% CO2. The GFP signal was measured with PerkinElmer EnVision apparatus using a 405 nm filter.
The method of Harbron (Statistics in Medicine, 2010, DOI:10.1002/sim3916) was used to assess synergy. Using the Loewe definition, two compounds are characterized as being additive, synergistic or antagonistic by:
where d1 and d2 represent the doses of the two compounds that in combination produce an effect y, and Dy,1 and Dy,2 represent the doses of the two compounds that produce the same effect, y, when administered as a monotherapy. A 3PL model (3-parameter log-logistic model) was used for the monotherapy dose-response data, where the baseline response was fixed at one.
Following Harbron's approach, the following models were fitted to the data: • “Additive”: assuming no interaction between the two compounds • “Uniform”: assuming a constant interaction index τ across all dose combinations • “Linear A”: assuming the interaction index linearly depends on the log 10 dose of compound A: z=τ1+τ2 log 10(dA) • “Separate A”: assuming the interaction index τ takes a separate value for each dose of compound A The latter two models were also considered for compound B: • “Linear B”: assuming the interaction index linearly τ depends on the log 10 dose of compound B: τ=τ1+τ2 log 10(dB) • “Separate B”: assuming the interaction index τ takes a separate value for each dose of compound B

In the case of `CS(=O)(=O)CCCn1c(Cn2c(=O)n(CC(F)(F)F)c3ccncc32)cc2cc(Cl)ccc21` [Compound A, 3-({5-chloro-1-[3-(methylsulfonyl)propyl]-1H-indol-2-yl}methyl)-1-(2,2,2-trifluoroethyl)-1,3-dihydro-2H-imidazo[4,5-c]pyridin-2-one], the “normalized GFP signal” value (A = 0.19 nM, B (A-60444) = 0) is reported as 0.96, the “normalized GFP signal” value (A = 0.19 nM, B (AZ-27) = 0) is reported as 0.98 and the “normalized GFP signal” value (A = 0.19 nM, B (CAS 851658-10-1) = 0) is reported as 0.99. The “normalized GFP signal” value (A = 0.19 nM, B (CR9501) = 0) was 1.05, the “normalized GFP signal” value (A = 0.19 nM, B (GS-5806) = 0) was 0.99 and the “normalized GFP signal” value (A = 0.19 nM, B (MDT-637) = 0) was 0.98. For the same compound, the “normalized GFP signal” value (A = 0.19 nM, B (palivizumab) = 0) was 1.04, the “normalized GFP signal” value (A = 0.19 nM, B (pulmocide compound) = 0) was 0.96 and the “normalized GFP signal” value (A = 0.19 nM, B (ribavirin) = 0) was 0.97. For the same compound, the “normalized GFP signal” value (A = 0.57 nM, B (A-60444) = 0) was 0.95, the “normalized GFP signal” value (A = 0.57 nM, B (AZ-27) = 0) was 0.96 and the “normalized GFP signal” value (A = 0.57 nM, B (CAS 851658-10-1) = 0) was 0.96. For the same compound, the “normalized GFP signal” value (A = 0.57 nM, B (CR9501) = 0) was 1.01, the “normalized GFP signal” value (A = 0.57 nM, B (GS-5806) = 0) was 0.93 and the “normalized GFP signal” value (A = 0.57 nM, B (MDT-637) = 0) was 0.97. For the same compound, the “normalized GFP signal” value (A = 0.57 nM, B (palivizumab) = 0) was 0.98, the “normalized GFP signal” value (A = 0.57 nM, B (pulmocide compound) = 0) was 0.92 and the “normalized GFP signal” value (A = 0.57 nM, B (ribavirin) = 0) was 0.95. For the same compound, the “normalized GFP signal” value (A = 1.7 nM, B (A-60444) = 0) was 0.83, the “normalized GFP signal” value (A = 1.7 nM, B (AZ-27) = 0) was 0.89 and the “normalized GFP signal” value (A = 1.7 nM, B (CAS 851658-10-1) = 0) was 0.83. For the same compound, the “normalized GFP signal” value (A = 1.7 nM, B (CR9501) = 0) was 0.89, the “normalized GFP signal” value (A = 1.7 nM, B (GS-5806) = 0) was 0.83 and the “normalized GFP signal” value (A = 1.7 nM, B (MDT-637) = 0) was 0.85. For the same compound, the “normalized GFP signal” value (A = 1.7 nM, B (palivizumab) = 0) was 0.86, the “normalized GFP signal” value (A = 1.7 nM, B (pulmocide compound) = 0) was 0.78 and the “normalized GFP signal” value (A = 1.7 nM, B (ribavirin) = 0) was 0.87. The “normalized GFP signal” value (A = 5.1 nM, B (A-60444) = 0) was 0.55, the “normalized GFP signal” value (A = 5.1 nM, B (AZ-27) = 0) was 0.71 and the “normalized GFP signal” value (A = 5.1 nM, B (CAS 851658-10-1) = 0) was 0.50. The “normalized GFP signal” value (A = 5.1 nM, B (CR9501) = 0) was 0.64, the “normalized GFP signal” value (A = 5.1 nM, B (GS-5806) = 0) was 0.47 and the “normalized GFP signal” value (A = 5.1 nM, B (MDT-637) = 0) was 0.43. For the same compound, the “normalized GFP signal” value (A = 5.1 nM, B (palivizumab) = 0) was 0.57, the “normalized GFP signal” value (A = 5.1 nM, B (pulmocide compound) = 0) was 0.56 and the “normalized GFP signal” value (A = 5.1 nM, B (ribavirin) = 0) was 0.63. For the same compound, the “normalized GFP signal” value (A = 15 nM, B (A-60444) = 0) was 0.38, the “normalized GFP signal” value (A = 15 nM, B (AZ-27) = 0) was 0.45 and the “normalized GFP signal” value (A = 15 nM, B (CAS 851658-10-1) = 0) was 0.31. The “normalized GFP signal” value (A = 15 nM, B (CR9501) = 0) was 0.41, the “normalized GFP signal” value (A = 15 nM, B (GS-5806) = 0) was 0.30 and the “normalized GFP signal” value (A = 15 nM, B (MDT-637) = 0) was 0.26. For the same compound, the “normalized GFP signal” value (A = 15 nM, B (palivizumab) = 0) was 0.38, the “normalized GFP signal” value (A = 15 nM, B (pulmocide compound) = 0) was 0.43 and the “normalized GFP signal” value (A = 15 nM, B (ribavirin) = 0) was 0.39. For the same compound, the “normalized GFP signal” value (A = 46 nM, B (A-60444) = 0) was 0.28, the “normalized GFP signal” value (A = 46 nM, B (AZ-27) = 0) was 0.25 and the “normalized GFP signal” value (A = 46 nM, B (CAS 851658-10-1) = 0) was 0.19. The “normalized GFP signal” value (A = 46 nM, B (CR9501) = 0) was 0.28, the “normalized GFP signal” value (A = 46 nM, B (GS-5806) = 0) was 0.21 and the “normalized GFP signal” value (A = 46 nM, B (MDT-637) = 0) was 0.16. For the same compound, the “normalized GFP signal” value (A = 46 nM, B (palivizumab) = 0) was 0.28, the “normalized GFP signal” value (A = 46 nM, B (pulmocide compound) = 0) was 0.36 and the “normalized GFP signal” value (A = 46 nM, B (ribavirin) = 0) was 0.25. For the same compound, the “normalized GFP signal” value (A = 139 nM, B (A-60444) = 0) was 0.14, the “normalized GFP signal” value (A = 139 nM, B (AZ-27) = 0) was 0.17 and the “normalized GFP signal” value (A = 139 nM, B (CAS 851658-10-1) = 0) was 0.10. For the same compound, the “normalized GFP signal” value (A = 139 nM, B (CR9501) = 0) was 0.21, the “normalized GFP signal” value (A = 139 nM, B (GS-5806) = 0) was 0.11 and the “normalized GFP signal” value (A = 139 nM, B (MDT-637) = 0) was 0.06. For the same compound, the “normalized GFP signal” value (A = 139 nM, B (palivizumab) = 0) was 0.17, the “normalized GFP signal” value (A = 139 nM, B (pulmocide compound) = 0) was 0.20 and the “normalized GFP signal” value (A = 139 nM, B (ribavirin) = 0) was 0.15. The “normalized GFP signal” value (A = 417 nM, B (A-60444) = 0) was 0.07, the “normalized GFP signal” value (A = 417 nM, B (AZ-27) = 0) was 0.07 and the “normalized GFP signal” value (A = 417 nM, B (CAS 851658-10-1) = 0) was 0.06. The “normalized GFP signal” value (A = 417 nM, B (CR9501) = 0) was 0.10, the “normalized GFP signal” value (A = 417 nM, B (GS-5806) = 0) was 0.06 and the “normalized GFP signal” value (A = 417 nM, B (MDT-637) = 0) was 0.02. The “normalized GFP signal” value (A = 417 nM, B (palivizumab) = 0) was 0.09, the “normalized GFP signal” value (A = 417 nM, B (pulmocide compound) = 0) was 0.11 and the “normalized GFP signal” value (A = 417 nM, B (ribavirin) = 0) was 0.08. The “normalized GFP signal” value (A = 1250 nM, B (A-60444) = 0) was 0.04, the “normalized GFP signal” value (A = 1250 nM, B (AZ-27) = 0) was 0.04 and the “normalized GFP signal” value (A = 1250 nM, B (CAS 851658-10-1) = 0) was 0.04. For the same compound, the “normalized GFP signal” value (A = 1250 nM, B (CR9501) = 0) was 0.06, the “normalized GFP signal” value (A = 1250 nM, B (GS-5806) = 0) was 0.03 and the “normalized GFP signal” value (A = 1250 nM, B (MDT-637) = 0) was −0.00. For the same compound, the “normalized GFP signal” value (A = 1250 nM, B (palivizumab) = 0) was 0.05, the “normalized GFP signal” value (A = 1250 nM, B (pulmocide compound) = 0) was 0.06 and the “normalized GFP signal” value (A = 1250 nM, B (ribavirin) = 0) was 0.04.

From patent US10363253B2, “Combination products for the treatment of RSV” (priority 2016, dated 2019)
